Results on 11 sequences are retold here after PMC9253215, “A new strategy: identification of specific antibodies for neutralizing epitope on SARS-CoV-2 S protein by LC-MS/MS combined with immune repertoire” (Molecular Biomedicine, 2022).

The subject of one assay is SARS-CoV-2 pseudovirus. Format: cell-based.
The next assay deals with T1, S1 protein (Severe acute respiratory syndrome coronavirus 2, UniProt P0DTC2).
T1 construct: Purified S1 protein was first immobilized on a series S sensor chip protein A; purchased OkayBio
The assay can be described thus: biochemical. Format: binding, SARS-CoV-2.

Ends that are not written are not given here.

For VRERISYFDHWGQG [CDR3 peptide 53], in the assay on SARS-CoV-2, the “neutralizing activity against SARS-CoV-2 by IFA assay” value (shortened to “neutralizing activity”) is recorded as “obvious neutralizing activity”.
With YYCQSYDSSNVV [CDR3 peptide 47], in the assay on SARS-CoV-2 pseudovirus, the “neutralizing ability by pseudovirus neutralizing assay” value was “showed neutralizing ability”. Further, in the assay on SARS-CoV-2, the “neutralizing ability by authentic virus neutralization assays” value is on record as “showed neutralizing ability” and the “neutralizing activity” value is “modestly lower neutralizing activity”.
Regarding ARERADDYSNYCWFDP [CDR3 peptide 12], the “neutralizing ability by pseudovirus neutralizing assay” value in the assay with SARS-CoV-2 pseudovirus is on record as “showed neutralizing ability”. Besides, in the assay on SARS-CoV-2, the “neutralizing ability by authentic virus neutralization assays” value is “showed neutralizing ability” and the “neutralizing activity” value is given as “obvious neutralizing activity”.
As for ARDVSSLYGGNSDDY [CDR3 peptide 24], in the assay on SARS-CoV-2, the “neutralizing activity” value is recorded as “no neutralizing activity”.
In the case of YYCQQYDNLSGT [CDR3 peptide 44], in the assay with SARS-CoV-2 pseudovirus, the “neutralizing ability by pseudovirus neutralizing assay” value was “showed neutralizing ability”. For the same sequence, in the assay with SARS-CoV-2, the “neutralizing ability by authentic virus neutralization assays” value was “showed neutralizing ability” and the “neutralizing activity” value was “modestly lower neutralizing activity”.
Turning to AKDFRQYCSSTTCYDLDY [CDR3 peptide 21], the “neutralizing ability by pseudovirus neutralizing assay” value with SARS-CoV-2 pseudovirus is on record as “showed neutralizing ability”. For the same sequence, in the assay with SARS-CoV-2, the “neutralizing ability by authentic virus neutralization assays” value was “showed neutralizing ability” and the “neutralizing activity” value is given as “obvious neutralizing activity”.
As for EAWDVDNRVFGGGTR [CDR3 peptide 51], the “neutralizing activity” value with SARS-CoV-2 is on record as “obvious neutralizing activity”. Moreover, the IC50 in the assay with SARS-CoV-2 (24 h) lay within 1250 to 2500 µg/mL.
ARDIVVPAAMGEIGGWFDP [CDR3 peptide 16] displayed a Kd on S1 protein of 24.1 µM.
For TTDRYQLLWAG [CDR3 peptide 22], the “neutralizing ability by pseudovirus neutralizing assay” value with SARS-CoV-2 pseudovirus was “showed neutralizing ability”. Moreover, in the assay on SARS-CoV-2, the “neutralizing ability by authentic virus neutralization assays” value is given as “showed neutralizing ability” and the “neutralizing activity” value is recorded as “obvious neutralizing activity”.
Regarding VRYSPEPAVLITEGYFD [CDR3 peptide 4], the “neutralizing ability by pseudovirus neutralizing assay” value in the assay on SARS-CoV-2 pseudovirus was “showed neutralizing ability”. Also, in the assay with SARS-CoV-2, the “neutralizing ability by authentic virus neutralization assays” value was “showed neutralizing ability” and the “neutralizing activity” value is on record as “modestly lower neutralizing activity”.
At S1 protein, ARESLYDFDGSGYVDALDV [CDR3 peptide 11] showed a Kd of 0.262 µM.

The IC50 is the concentration that inhibits the measured activity by half. A low value points to higher potency. Broadly, the Kd is a measure of binding affinity in units of concentration.
